Experimental data as given in patent publication US20250171426A1, “PYRIMIDINEDIONE-BASED COMPOUNDS AS AXL, C-MET, AND MER INHIBITORS AND METHODS OF USE THEREOF” (CMG Pharmaceutical Co., Ltd., priority 2022, published 2025).

Assays:
Format in all cases: biochemical
Conditions in all cases: 10 μM ATP, 60 min, ADP-GLO luminescence
c-MET = c-MET (Homo sapiens, UniProt P08581); experiment: Enzymatic assay (ADP-Glo kinase reaction), c-MET
Procedure: (§1) All the kinase reactions were performed in 5 μL using tyrosine kinase buffer with 0.2 μg/μL poly (Glu4, Tyr1) substrate, 10 μM ATP, serial dilution of the inhibitor, and incubated at room temperature for 60 min. After the indicated incubation times, 5 μL ADP-GLO™ reagent (Promega, Madison, WI) was added to the reactions and the plate was incubated at room temperature for 40 min. […] All 384-well assay plates were read using a GLOMAX™ Discover Microplate Luminometer from Promega (Madison, WI). To plot, analyze the data and calculate all kinase reaction biochemical values, both Microsoft Excel and Prism from GraphPad 7 Software (La Jolla, CA) were used.

AXL = biological target: T1, AXL (Homo sapiens, UniProt P30530); experiment: Enzymatic assay (ADP-Glo kinase reaction), AXL
T1 sequence (P30530 26-894): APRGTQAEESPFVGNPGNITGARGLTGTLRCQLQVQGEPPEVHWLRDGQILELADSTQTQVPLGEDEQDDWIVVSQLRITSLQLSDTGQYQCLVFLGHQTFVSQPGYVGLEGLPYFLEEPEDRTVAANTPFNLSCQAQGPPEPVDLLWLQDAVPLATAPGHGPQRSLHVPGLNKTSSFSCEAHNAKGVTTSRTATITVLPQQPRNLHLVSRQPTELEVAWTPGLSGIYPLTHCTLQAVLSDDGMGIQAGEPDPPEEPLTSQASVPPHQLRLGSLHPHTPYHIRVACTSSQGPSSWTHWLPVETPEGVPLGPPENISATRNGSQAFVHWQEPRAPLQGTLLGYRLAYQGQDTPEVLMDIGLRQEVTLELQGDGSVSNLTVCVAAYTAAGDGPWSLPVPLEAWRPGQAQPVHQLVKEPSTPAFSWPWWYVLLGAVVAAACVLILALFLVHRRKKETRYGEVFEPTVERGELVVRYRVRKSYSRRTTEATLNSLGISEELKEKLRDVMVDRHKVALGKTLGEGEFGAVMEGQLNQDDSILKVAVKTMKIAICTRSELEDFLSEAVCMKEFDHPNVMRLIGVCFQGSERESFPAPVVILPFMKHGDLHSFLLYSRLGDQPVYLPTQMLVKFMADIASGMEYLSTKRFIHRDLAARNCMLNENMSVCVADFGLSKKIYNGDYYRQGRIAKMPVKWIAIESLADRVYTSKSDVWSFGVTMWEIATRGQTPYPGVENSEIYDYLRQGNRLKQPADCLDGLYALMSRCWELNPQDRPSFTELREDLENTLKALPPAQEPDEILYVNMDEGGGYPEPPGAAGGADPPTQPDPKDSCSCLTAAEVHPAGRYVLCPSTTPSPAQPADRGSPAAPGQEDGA
Procedure: as §1

MER = biological target: T2, MER (Homo sapiens, UniProt Q12866); experiment: Enzymatic assay (ADP-Glo kinase reaction), MER
T2 sequence (Q12866 21-999): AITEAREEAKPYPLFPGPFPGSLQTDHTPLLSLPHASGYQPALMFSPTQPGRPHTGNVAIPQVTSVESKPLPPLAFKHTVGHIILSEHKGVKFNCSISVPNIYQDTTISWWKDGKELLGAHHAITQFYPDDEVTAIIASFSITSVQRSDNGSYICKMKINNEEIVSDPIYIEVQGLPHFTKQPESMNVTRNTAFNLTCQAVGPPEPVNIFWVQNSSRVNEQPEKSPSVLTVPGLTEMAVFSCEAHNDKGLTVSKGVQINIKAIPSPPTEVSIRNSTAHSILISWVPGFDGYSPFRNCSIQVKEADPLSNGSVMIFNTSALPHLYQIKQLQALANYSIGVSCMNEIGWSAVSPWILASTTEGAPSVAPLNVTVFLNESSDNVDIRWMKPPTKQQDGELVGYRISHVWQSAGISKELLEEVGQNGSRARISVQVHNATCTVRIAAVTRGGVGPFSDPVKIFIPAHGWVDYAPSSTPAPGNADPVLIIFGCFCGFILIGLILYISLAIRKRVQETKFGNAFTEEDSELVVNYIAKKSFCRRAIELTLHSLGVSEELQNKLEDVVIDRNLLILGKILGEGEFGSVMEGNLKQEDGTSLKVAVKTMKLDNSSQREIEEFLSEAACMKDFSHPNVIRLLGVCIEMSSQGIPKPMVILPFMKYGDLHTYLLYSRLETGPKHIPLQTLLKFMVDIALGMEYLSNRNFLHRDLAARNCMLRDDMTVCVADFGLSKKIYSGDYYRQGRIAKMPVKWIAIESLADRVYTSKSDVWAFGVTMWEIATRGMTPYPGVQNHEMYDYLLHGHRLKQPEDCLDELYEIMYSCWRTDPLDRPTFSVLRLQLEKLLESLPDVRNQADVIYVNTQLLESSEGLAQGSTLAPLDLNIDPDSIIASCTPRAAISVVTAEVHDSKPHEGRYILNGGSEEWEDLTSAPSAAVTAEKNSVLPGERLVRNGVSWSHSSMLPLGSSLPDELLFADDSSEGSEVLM
Procedure: (§2) All the kinase reactions were performed in 5 μL using tyrosine kinase buffer with 0.2 μg/μL poly (Glu4, Tyr1) substrate, 10 μM ATP, serial dilution of the inhibitor, and incubated at room temperature for 60 min. After the indicated incubation times, 5 μL ADP-GLO™ reagent (Promega, Madison, WI) was added to the reactions and the plate was incubated at room temperature for 40 min. Then, 10 μL of kinase detection reagent was added and after an incubation time of 40 min, luminescence was recorded and IC50 values were determined (Table 1). All 384-well assay plates were read using a GLOMAX™ Discover Microplate Luminometer from Promega (Madison, WI). To plot, analyze the data and calculate all kinase reaction biochemical values, both Microsoft Excel and Prism from GraphPad 7 Software (La Jolla, CA) were used.
as §2, with “3).” for “1).”

c-MET, sequence (P08581 25-1390): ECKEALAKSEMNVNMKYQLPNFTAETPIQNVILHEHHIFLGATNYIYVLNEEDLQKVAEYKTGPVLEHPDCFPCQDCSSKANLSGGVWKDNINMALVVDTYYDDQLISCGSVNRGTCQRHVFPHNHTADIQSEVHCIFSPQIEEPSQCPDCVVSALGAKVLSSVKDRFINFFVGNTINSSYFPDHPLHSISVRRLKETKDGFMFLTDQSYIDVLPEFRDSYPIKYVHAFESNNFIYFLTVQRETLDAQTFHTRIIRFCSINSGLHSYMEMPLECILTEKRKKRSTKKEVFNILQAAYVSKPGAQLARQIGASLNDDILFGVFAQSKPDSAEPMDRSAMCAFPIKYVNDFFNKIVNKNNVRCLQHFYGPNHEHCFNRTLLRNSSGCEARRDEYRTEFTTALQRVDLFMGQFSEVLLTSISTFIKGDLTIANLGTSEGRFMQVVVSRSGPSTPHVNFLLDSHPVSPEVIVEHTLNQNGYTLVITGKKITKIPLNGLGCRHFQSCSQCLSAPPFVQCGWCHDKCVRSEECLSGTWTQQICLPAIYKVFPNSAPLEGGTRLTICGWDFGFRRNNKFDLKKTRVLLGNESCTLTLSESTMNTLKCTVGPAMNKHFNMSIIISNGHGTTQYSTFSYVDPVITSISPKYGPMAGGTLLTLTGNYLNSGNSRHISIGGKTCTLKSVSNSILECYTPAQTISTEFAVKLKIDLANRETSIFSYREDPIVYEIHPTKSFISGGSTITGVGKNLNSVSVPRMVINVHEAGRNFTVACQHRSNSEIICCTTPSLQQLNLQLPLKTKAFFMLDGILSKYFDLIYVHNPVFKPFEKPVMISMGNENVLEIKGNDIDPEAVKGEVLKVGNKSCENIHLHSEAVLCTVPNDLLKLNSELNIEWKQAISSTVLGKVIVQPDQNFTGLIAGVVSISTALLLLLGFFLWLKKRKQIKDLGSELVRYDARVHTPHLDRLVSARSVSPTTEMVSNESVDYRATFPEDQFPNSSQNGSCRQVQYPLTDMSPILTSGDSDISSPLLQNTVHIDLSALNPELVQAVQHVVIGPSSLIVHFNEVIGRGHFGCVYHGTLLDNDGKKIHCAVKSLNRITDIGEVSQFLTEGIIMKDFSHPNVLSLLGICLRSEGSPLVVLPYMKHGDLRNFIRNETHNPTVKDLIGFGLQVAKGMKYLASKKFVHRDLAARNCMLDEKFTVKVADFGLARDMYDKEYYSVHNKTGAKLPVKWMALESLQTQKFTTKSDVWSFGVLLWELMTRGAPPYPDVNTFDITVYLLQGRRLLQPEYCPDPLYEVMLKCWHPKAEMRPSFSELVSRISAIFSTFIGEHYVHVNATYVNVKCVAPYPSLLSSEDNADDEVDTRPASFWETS

Compound	IC50 (c-MET) [nM]	IC50 (AXL) [nM]	IC50 (MER) [nM]
C=CCn1cc(C(=O)Nc2ccc(Oc3ccnc(N)c3C#CCC3CCN(C)CC3)c(F)c2)c(=O)n(CC=C)c1=O [Example 69, 1,3-diallyl-N-(4-(2-amino-3-(3-(1-methylpiperdin-4-yl)prop-1-ynyl)pyridin-4-yloxy)-3-fluorophenyl)-2,4-dioxo-1,2,3,4-tetrahydropyrimidine-5-carboxamide]	< 1000	< 100	< 100
Cn1nc(C(=O)Nc2ccc(Oc3ccnc(N)c3C#CCN3CCOCC3)c(F)c2)c(=O)n(-c2ccc(F)cc2)c1=O [Example 49, N-(4-(2-amino-3-(3-morpholinoprop-1-ynyl)pyridin-4-yloxy)-3-fluorophenyl)-4-(4-fluorophenyl)-2-methyl-3,5-dioxo-2,3,4,5-tetrahydro-1,2,4-triazine-6-carboxamide]	< 1000	< 100	< 100
CC(C)n1cc(C(=O)Nc2ccc(Oc3ccnc(N)c3-c3ccccc3)c(F)c2)c(=O)n(-c2ccc(F)cc2)c1=O [Example 22, N-(4-(2-amino-3-phenylpyridin-4-yloxy)-3-fluorophenyl)-3-(4-fluorophenyl)-1-isopropyl-2,4-dioxo-1,2,3,4-tetrahydropyrimidine-5-carboxamide]	< 100	< 100	< 100
Cc1nc(Cn2cc(C(=O)Nc3ccc(Oc4ccnc(N)c4C#CCC4CCNCC4)c(F)c3)c(=O)n(-c3ccc(F)cc3)c2=O)cs1 [Example 44, N-(4-((2-amino-3-(3-(piperidin-4-yl)prop-1-yn-1-yl)pyridin-4-yl)oxy)-3-fluorophenyl)-3-(4-fluorophenyl)-1-((2-methylthiazol-4-yl)methyl)-2,4-dioxo-1,2,3,4-tetrahydropyrimidine-5-carboxamide]	< 10	< 10	< 10
COCCN1CCN(C(=O)CCc2c(Oc3ccc(NC(=O)c4cn(C(C)C)c(=O)n(-c5ccc(F)cc5)c4=O)cc3F)ccnc2N)CC1 [Example 21, N-(4-(2-amino-3-(3-(4-(2-methoxyethyl)piperazin-1-yl)-3-oxopropyl)pyridin-4-yloxy)-3-fluorophenyl)-3-(4-fluorophenyl)-1-isopropyl-2,4-dioxo-1,2,3,4-tetrahydropyrimidine-5-carboxamide]	< 10000	< 1000	< 1000
CCCn1cc(-c2c(Oc3ccc(NC(=O)c4cn(C(C)C)c(=O)n(-c5ccc(F)cc5)c4=O)cc3F)ccnc2N)cn1 [Example 12, N-(4-(2-amino-3-(1-propyl-1H-pyrazol-4-yl)pyridine-4-yloxy)-3-fluorophenyl)-3-(4-fluorophenyl)-1-isopropyl-2,4-dioxo-1,2,3,4-tetrahydropyrimidine-5-carboxamide]	< 10000	< 1000	< 1000

Now from value to compound:

IC50 (c-MET) [nM]	IC50 (AXL) [nM]	IC50 (MER) [nM]	Compound
< 10	< 10	< 100	CN1CCC(CC#Cc2c(Oc3ccc(NC(=O)c4c[nH]c(=O)n(-c5ccc(F)cc5)c4=O)cc3F)ccnc2N)CC1 [Example 54, N-(4-(2-amino-3-(3-(1-methylpiperidin-4-yl)prop-1-ynyl)pyridin-4-yloxy)-3-fluorophenyl)-3-(4-fluorophenyl)-2,4-dioxo-1,2,3,4-tetrahydropyrimidine-5-carboxamide]
< 10	< 10	< 100	CC(C)n1cc(C(=O)Nc2ccc(Oc3ccnc(N)c3C#Cc3ccccn3)c(F)c2)c(=O)n(-c2ccc(F)cc2)c1=O [Example 9, N-(4-(2-amino-3-(pyridin-2-ylethnyl)pyridin-4-yloxy)-3-fluorophenyl)-3-(4-fluorophenyl)-1-isopropyl-2,4-dioxo-1,2,3,4-tetrahydropyrimidine-5-carboxamide]
< 100	< 100	< 10	Nc1nccc(Oc2ccc(NC(=O)c3cn(C4CCOCC4)c(=O)n(-c4ccc(F)cc4)c3=O)cc2F)c1C#CCC1CCNCC1 [Example 59, N-(4-(2-amino-3-(3-(piperidin-4-yl)prop-1-ynyl)pyridin-4-yloxy)-3-fluorophenyl)-3-(4-fluorophenyl)-2,4-dioxo-1-(tetrahydro-2H-pyran-4-yl)-1,2,3,4-tetrahydropyrimidine-5-carboxamide]
< 10	< 10	< 10	COCCN1CCN(C(=O)C#Cc2c(Oc3ccc(NC(=O)c4cn(C(C)C)c(=O)n(-c5ccc(F)cc5)c4=O)cc3F)ccnc2N)CC1 [Example 2, N-(4-(2-amino-3-(3-(4-(2-methoxyethyl)piperazin-1-yl)-3-oxoprop-1-ynyl)pyridin-4-yloxy)-3-fluorophenyl)-3-(4-fluorophenyl)-1-isopropyl-2,4-dioxo-1,2,3,4-teterahydropyrimidine-5-carboxamide]
< 10	< 10	< 10	Cc1nc(Cn2cc(C(=O)Nc3ccc(Oc4ccnc(N)c4C#CCC4CCN(C)CC4)c(F)c3)c(=O)n(-c3ccc(F)cc3)c2=O)cs1 [Example 43, N-(4-((2-amino-3-(3-(1-methylpiperidin-4-yl)prop-1-yn-1-yl)pyridin-4-yl)oxy)-3-fluorophenyl)-3-(4-fluorophenyl)-1-((2-methylthiazol-4-yl)methyl)-2,4-dioxo-1,2,3,4-tetrahydropyrimidine-5-carboxamide]
< 10	< 10	< 10	COCCN1CCN(C(C)(C)C#Cc2c(Oc3ccc(NC(=O)c4cn(C(C)C)c(=O)n(-c5ccc(F)cc5)c4=O)cc3F)ccnc2N)CC1 [Example 20, N-(4-(2-amino-3-(3-(4-(2-methoxyethyl)piperazin-1-yl)-3-methylbut-1-ynyl)pyridin-4-yloxy)-3-fluorophenyl)-3-(4-fluorophenyl)-1-isopropyl-2,4-dioxo-1,2,3,4-tetrahydropyrimidine-5-carboxamide]
